Active and inactive are the calls of the source. On the calls: in the data inactive means no Kd found up to 30 µM.
Key:
[1] = molecular target: T1, Long-chain-fatty-acid--CoA ligase 5 (Homo sapiens, UniProt Q9ULC5)
T1 sequence (Q9ULC5 whole entry): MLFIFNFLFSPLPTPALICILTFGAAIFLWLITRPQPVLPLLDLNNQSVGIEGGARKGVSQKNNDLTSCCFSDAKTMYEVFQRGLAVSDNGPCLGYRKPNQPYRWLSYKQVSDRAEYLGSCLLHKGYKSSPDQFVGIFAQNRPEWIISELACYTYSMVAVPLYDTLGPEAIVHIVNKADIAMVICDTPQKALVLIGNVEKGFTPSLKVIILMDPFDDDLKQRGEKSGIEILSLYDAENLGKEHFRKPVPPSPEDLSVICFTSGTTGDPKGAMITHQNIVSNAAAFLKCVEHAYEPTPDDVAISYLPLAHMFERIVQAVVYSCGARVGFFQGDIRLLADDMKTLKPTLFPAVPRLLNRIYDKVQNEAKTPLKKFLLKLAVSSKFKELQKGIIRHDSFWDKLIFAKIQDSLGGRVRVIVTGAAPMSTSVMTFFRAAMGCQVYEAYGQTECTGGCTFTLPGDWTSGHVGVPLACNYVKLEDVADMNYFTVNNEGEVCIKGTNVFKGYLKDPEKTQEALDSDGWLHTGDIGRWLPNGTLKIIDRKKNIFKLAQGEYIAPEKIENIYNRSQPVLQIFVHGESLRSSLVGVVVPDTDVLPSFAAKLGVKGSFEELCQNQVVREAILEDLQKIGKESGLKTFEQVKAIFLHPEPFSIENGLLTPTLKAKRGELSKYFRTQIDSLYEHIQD

[2] = molecular target: Dual specificity tyrosine-phosphorylation-regulated kinase 1B (Homo sapiens, UniProt Q9Y463)
[3] = molecular target: T2, Electron transfer flavoprotein subunit beta (Homo sapiens, UniProt P38117)
T2 sequence (P38117 whole entry): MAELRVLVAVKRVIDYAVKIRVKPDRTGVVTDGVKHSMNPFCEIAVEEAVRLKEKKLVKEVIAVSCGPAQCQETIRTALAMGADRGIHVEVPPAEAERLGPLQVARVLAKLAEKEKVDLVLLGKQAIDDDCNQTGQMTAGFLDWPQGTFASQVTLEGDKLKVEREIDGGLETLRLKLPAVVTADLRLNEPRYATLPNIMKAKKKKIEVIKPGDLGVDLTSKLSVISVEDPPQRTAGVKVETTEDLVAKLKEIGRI

[4] = molecular target: T3, Isoleucine--tRNA ligase, mitochondrial (Homo sapiens, UniProt Q9NSE4)
T3 sequence (Q9NSE4 whole entry): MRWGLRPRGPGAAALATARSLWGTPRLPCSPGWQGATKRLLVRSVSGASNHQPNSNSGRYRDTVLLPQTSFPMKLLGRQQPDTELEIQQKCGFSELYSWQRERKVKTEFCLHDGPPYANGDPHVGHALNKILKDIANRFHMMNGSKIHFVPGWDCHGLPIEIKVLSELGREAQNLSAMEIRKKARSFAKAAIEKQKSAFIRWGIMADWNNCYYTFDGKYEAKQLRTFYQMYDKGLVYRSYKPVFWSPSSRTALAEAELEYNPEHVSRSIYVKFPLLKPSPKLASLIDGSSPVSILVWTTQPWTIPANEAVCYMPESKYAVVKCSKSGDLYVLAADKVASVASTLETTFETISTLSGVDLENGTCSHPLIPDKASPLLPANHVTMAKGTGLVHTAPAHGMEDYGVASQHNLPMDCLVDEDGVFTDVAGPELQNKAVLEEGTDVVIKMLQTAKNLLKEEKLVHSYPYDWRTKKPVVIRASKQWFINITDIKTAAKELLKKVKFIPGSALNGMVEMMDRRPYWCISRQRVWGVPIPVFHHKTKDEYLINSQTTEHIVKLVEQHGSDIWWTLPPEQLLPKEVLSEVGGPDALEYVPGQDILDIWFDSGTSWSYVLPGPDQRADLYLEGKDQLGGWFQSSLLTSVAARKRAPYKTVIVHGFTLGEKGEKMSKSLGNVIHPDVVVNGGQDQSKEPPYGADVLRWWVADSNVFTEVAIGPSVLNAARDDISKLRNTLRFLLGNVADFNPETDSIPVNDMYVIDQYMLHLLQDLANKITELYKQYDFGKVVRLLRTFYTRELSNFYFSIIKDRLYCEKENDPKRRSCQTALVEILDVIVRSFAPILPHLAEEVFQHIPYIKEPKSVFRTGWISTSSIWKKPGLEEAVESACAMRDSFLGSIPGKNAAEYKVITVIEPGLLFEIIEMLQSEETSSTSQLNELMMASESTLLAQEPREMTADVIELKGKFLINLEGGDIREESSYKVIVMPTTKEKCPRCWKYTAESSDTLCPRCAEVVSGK

[5] = molecular target: Serine/threonine-protein kinase pim-2 (Homo sapiens, UniProt Q9P1W9)
[6] = molecular target: Serine/threonine-protein kinase N3 (Homo sapiens, UniProt Q6P5Z2)
[7] = molecular target: T4, Protein kinase C zeta type (Homo sapiens, UniProt Q05513)
T4 sequence (Q05513 whole entry): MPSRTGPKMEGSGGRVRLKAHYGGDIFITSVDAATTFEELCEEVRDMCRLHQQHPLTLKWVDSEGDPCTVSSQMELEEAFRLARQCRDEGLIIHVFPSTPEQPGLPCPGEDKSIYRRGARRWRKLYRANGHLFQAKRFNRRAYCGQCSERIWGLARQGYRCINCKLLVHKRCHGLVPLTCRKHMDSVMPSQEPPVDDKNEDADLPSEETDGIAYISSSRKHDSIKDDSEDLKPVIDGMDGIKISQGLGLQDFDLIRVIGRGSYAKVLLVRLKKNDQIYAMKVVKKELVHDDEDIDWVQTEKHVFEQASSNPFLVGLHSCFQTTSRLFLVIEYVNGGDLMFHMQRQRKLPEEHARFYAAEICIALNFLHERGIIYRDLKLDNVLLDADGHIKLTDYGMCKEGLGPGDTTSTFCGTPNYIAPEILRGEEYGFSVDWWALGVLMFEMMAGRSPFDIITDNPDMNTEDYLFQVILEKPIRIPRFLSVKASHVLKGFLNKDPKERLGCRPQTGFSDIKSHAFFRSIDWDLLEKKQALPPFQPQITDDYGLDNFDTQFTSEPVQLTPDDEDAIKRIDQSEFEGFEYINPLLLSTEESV

[8] = molecular target: Serine/threonine-protein kinase 38 (Homo sapiens, UniProt Q15208)
[9] = molecular target: Tyrosine-protein kinase Fgr (Homo sapiens, UniProt P09769)
[10] = molecular target: Cyclin-dependent kinase 10 (Homo sapiens, UniProt Q15131)
Sequence of Cyclin-dependent kinase 10 (Q15131 whole entry): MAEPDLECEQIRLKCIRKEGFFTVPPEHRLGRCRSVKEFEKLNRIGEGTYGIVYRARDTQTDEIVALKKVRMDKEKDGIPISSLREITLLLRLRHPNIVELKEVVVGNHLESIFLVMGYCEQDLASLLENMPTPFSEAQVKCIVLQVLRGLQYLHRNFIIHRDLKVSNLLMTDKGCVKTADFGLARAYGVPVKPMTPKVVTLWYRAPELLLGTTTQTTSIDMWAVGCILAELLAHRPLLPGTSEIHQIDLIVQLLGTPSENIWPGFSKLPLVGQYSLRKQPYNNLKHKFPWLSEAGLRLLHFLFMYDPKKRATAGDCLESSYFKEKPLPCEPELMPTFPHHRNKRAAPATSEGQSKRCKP

Sequence of Dual specificity tyrosine-phosphorylation-regulated kinase 1B (Q9Y463 whole entry): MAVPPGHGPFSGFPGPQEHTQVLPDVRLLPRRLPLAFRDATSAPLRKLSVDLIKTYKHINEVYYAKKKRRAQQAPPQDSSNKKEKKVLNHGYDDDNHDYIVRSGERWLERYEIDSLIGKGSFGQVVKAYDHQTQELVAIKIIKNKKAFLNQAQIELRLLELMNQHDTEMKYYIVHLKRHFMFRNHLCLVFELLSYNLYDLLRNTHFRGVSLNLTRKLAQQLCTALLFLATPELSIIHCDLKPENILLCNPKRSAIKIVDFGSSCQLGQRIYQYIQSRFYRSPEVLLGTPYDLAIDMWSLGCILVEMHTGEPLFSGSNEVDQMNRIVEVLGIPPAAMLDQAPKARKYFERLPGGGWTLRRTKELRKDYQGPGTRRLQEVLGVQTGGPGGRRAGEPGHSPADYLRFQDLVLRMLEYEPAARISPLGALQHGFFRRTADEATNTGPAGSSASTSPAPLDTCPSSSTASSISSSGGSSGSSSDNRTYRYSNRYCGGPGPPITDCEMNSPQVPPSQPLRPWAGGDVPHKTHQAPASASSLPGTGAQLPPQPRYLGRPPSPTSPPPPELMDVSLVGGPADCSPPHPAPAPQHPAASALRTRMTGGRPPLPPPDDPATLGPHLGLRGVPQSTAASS
Sequence of Serine/threonine-protein kinase N3 (Q6P5Z2 whole entry): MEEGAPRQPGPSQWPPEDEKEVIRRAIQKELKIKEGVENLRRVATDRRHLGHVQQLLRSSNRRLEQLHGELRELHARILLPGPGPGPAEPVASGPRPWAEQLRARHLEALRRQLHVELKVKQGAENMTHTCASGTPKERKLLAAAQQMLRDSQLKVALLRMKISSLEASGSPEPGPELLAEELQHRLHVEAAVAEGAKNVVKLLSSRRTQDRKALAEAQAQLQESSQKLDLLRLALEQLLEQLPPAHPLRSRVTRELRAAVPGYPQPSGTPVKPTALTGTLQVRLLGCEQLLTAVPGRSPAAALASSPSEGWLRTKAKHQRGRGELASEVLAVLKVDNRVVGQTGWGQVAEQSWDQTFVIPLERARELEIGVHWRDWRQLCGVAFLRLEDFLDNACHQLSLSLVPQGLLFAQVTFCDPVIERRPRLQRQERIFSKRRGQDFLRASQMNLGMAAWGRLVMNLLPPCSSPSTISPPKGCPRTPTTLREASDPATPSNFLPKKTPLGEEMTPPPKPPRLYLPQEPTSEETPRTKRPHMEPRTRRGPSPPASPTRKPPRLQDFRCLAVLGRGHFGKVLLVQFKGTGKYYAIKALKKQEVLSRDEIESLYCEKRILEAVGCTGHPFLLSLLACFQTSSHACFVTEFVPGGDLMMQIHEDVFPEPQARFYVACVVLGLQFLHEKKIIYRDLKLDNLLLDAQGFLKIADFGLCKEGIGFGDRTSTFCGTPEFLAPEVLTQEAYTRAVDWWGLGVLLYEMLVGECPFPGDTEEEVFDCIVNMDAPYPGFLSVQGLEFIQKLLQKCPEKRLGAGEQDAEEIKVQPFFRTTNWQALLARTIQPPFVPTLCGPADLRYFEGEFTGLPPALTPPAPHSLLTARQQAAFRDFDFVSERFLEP
Sequence of Serine/threonine-protein kinase 38 (Q15208 whole entry): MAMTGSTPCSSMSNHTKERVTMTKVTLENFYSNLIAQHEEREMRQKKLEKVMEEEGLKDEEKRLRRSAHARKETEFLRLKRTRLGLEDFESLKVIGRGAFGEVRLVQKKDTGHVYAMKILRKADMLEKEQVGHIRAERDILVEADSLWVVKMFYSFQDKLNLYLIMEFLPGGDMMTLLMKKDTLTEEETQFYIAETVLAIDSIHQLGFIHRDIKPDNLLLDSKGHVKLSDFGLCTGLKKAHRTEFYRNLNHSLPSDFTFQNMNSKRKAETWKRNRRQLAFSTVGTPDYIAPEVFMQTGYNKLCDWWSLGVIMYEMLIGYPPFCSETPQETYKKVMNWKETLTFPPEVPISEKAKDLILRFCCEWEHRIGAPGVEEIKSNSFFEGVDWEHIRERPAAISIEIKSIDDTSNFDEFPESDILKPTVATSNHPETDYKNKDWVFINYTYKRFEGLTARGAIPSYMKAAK
Sequence of Tyrosine-protein kinase Fgr (P09769 whole entry): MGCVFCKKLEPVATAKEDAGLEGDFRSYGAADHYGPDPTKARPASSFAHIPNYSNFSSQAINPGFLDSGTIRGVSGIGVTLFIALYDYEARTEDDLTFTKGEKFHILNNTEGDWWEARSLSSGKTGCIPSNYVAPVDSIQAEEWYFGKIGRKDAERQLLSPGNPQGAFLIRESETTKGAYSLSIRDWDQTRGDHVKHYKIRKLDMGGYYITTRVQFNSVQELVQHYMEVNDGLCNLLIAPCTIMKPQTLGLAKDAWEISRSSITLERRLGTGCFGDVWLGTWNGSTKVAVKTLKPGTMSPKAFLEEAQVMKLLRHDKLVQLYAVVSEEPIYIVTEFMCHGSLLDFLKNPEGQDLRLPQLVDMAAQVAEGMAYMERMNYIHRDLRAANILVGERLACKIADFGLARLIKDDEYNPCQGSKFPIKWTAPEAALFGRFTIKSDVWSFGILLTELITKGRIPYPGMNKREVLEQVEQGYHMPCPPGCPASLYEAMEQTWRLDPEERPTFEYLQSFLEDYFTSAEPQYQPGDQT
Sequence of Serine/threonine-protein kinase pim-2 (Q9P1W9 whole entry): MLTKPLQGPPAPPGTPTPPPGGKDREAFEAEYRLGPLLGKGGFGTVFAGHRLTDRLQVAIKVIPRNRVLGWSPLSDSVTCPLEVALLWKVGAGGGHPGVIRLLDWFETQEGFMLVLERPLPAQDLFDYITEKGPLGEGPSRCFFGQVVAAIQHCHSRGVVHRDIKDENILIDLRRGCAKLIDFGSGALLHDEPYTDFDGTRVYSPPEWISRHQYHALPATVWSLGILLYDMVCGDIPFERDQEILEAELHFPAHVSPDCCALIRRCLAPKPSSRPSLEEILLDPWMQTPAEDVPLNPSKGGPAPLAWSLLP

| Compound | Kd [1] | Kd [2] | Kd [3] | Kd [4] | Kd [5] | Kd [6] | Kd [7] | Kd [8] | Kd [9] | Kd [10] |
| --- | --- | --- | --- | --- | --- | --- | --- | --- | --- | --- |
| Cn1cc(-c2cnc3ccc4ccc(CS(=O)(=O)NCc5ccccn5)cc4c(=O)c3c2)cn1 [MK-8033] | > 30 µM (inactive) | > 30 µM (inactive) | > 30 µM (inactive) | > 30 µM (inactive) | > 30 µM (inactive) | > 30 µM (inactive) |  |  |  |  |
| Cc1cc(Nc2ncc(Cl)c(Nc3ccccc3S(=O)(=O)C(C)C)n2)c(OC(C)C)cc1C1CCNCC1 [CERITINIB] | > 30 µM (inactive) | > 30 µM (inactive) |  |  | > 30 µM (inactive) | > 30 µM (inactive) | > 30 µM (inactive) | > 30 µM (inactive) |  |  |
| Cc1nc2cc(-n3ncc(C(=O)c4cc5ccccc5[nH]4)c3N)ccc2[nH]1 [FGFR INHIBITOR DEBIO 1347] | > 30 µM (inactive) |  | > 30 µM (inactive) | > 30 µM (inactive) | > 30 µM (inactive) |  |  |  | > 30 µM (inactive) |  |
| N#CC1(c2ccc(NC(=O)c3cccnc3NCc3ccncc3)cc2)CCCC1 [RIVOCERANIB] | > 30 µM (inactive) | > 30 µM (inactive) | > 30 µM (inactive) | > 30 µM (inactive) |  |  | > 30 µM (inactive) |  |  |  |
| COc1cc2ncnc(Oc3cccc(NC(=O)Nc4cc(C(C)(C)C(F)(F)F)on4)c3)c2cc1OC [CEP-32496] |  |  | > 30 µM (inactive) | > 30 µM (inactive) | > 30 µM (inactive) | > 30 µM (inactive) | > 30 µM (inactive) | > 30 µM (inactive) |  | > 30 µM (inactive) |
| Cc1cc(C(=O)NOCCO)c(Nc2ccc(I)cc2F)n(C)c1=O [AZD-8330] |  |  |  |  |  | > 30 µM (inactive) |  |  | > 30 µM (inactive) |  |
| C#Cc1cccc(Nc2ncnc3cc(OC)c(OCCCCCCC(=O)NO)cc23)c1 [CUDC-101] | > 30 µM (inactive) |  | > 30 µM (inactive) |  | > 30 µM (inactive) | > 30 µM (inactive) | > 30 µM (inactive) |  | > 30 µM (inactive) |  |
| NC1(c2ccc(-c3nc4ccn5c(=O)[nH]nc5c4cc3-c3ccccc3)cc2)CCC1 [MK-2206] | > 30 µM (inactive) | > 30 µM (inactive) |  | > 30 µM (inactive) |  | > 30 µM (inactive) |  |  |  |  |
| Cc1nc2cc(-c3nn(C(C)C)c4ncnc(N)c34)ccc2o1 | > 30 µM (inactive) |  | > 30 µM (inactive) | > 30 µM (inactive) |  | 0.013 µM | > 30 µM (inactive) |  | > 30 µM (inactive) |  |
| Cc1cnc(NC(=O)Nc2cc(Br)c(C)cc2OC[C@@H]2CNCCO2)cn1 [RABUSERTIB] | > 30 µM (inactive) |  | > 30 µM (inactive) | > 30 µM (inactive) | > 30 µM (inactive) | > 30 µM (inactive) | > 30 µM (inactive) |  |  | > 30 µM (inactive) |
| Cc1nc(Nc2n[nH]c3c2CN(C(=O)N[C@H](CN(C)C)c2ccccc2)C3(C)C)c2sccc2n1 [PF-03758309] | > 30 µM (inactive) |  | > 30 µM (inactive) | > 30 µM (inactive) |  | > 30 µM (inactive) | > 30 µM (inactive) | 0.075 µM |  | > 30 µM (inactive) |
| COc1cc([C@@H]2c3cc4c(cc3[C@H](O)[C@H]3COC(=O)[C@@H]23)OCO4)cc(OC)c1OC [AXL-1717] | > 30 µM (inactive) |  | > 30 µM (inactive) | > 30 µM (inactive) | > 30 µM (inactive) |  |  | > 30 µM (inactive) |  | > 30 µM (inactive) |
| Cc1[nH]c(/C=C2\C(=O)Nc3ccccc32)c(C)c1CCC(=O)O [ORANTINIB] | > 30 µM (inactive) |  | > 30 µM (inactive) | > 30 µM (inactive) |  | > 30 µM (inactive) |  |  | > 30 µM (inactive) | > 30 µM (inactive) |
| COc1ccc(S(=O)(=O)N(C(C)=O)c2ccccc2/C=C/c2cc[n+]([O-])cc2)cc1 [HMN-214] |  |  |  |  | > 30 µM (inactive) | > 30 µM (inactive) | > 30 µM (inactive) |  | > 30 µM (inactive) |  |
| Cn1cnc2c(F)c(Nc3ccc(Br)cc3F)c(C(=O)NOCCO)cc21 [BINIMETINIB] | > 30 µM (inactive) |  | > 30 µM (inactive) |  | > 30 µM (inactive) | > 30 µM (inactive) |  |  | > 30 µM (inactive) | > 30 µM (inactive) |
| CCOc1cc2ncc(C#N)c(Nc3ccc(F)c(Cl)c3)c2cc1NC(=O)/C=C/CN(C)C [PELITINIB] |  |  | > 30 µM (inactive) | > 30 µM (inactive) | > 30 µM (inactive) | > 30 µM (inactive) |  | > 30 µM (inactive) |  | > 30 µM (inactive) |
| COc1c(OCCCN2CCOCC2)ccc2c1N=C(NC(=O)c1cnc(N)nc1)N1CCN=C21 [COPANLISIB] | > 30 µM (inactive) | > 30 µM (inactive) | > 30 µM (inactive) |  |  | > 30 µM (inactive) |  | > 30 µM (inactive) |  |  |
| C=CC(=O)Nc1cc2c(Nc3ccc(F)c(Cl)c3)ncnc2cc1C#CC(C)(C)N1CCN(C)CC1 [AV-412 FREE BASE] | > 30 µM (inactive) | > 30 µM (inactive) |  |  | > 30 µM (inactive) | > 30 µM (inactive) | > 30 µM (inactive) |  |  |  |
| C[C@@H](NC(=O)c1ncnc(N)c1Cl)c1ncc(C(=O)Nc2cc(C(F)(F)F)c(Cl)cn2)s1 [TOVORAFENIB] |  | > 30 µM (inactive) |  |  | > 30 µM (inactive) | > 30 µM (inactive) | > 30 µM (inactive) |  |  | > 30 µM (inactive) |
| NC(=O)c1c(OCc2c(F)cc(Br)cc2F)nsc1NC(=O)NCCCCN1CCCC1 [OSI-632] | > 30 µM (inactive) |  | > 30 µM (inactive) |  |  | > 30 µM (inactive) |  | > 30 µM (inactive) | > 30 µM (inactive) |  |
| Cn1cc(-c2cnn3c(N)c(Br)c([C@@H]4CCCNC4)nc23)cn1 [SCH-900776] | > 30 µM (inactive) |  | > 30 µM (inactive) |  |  |  | > 30 µM (inactive) | > 30 µM (inactive) | > 30 µM (inactive) |  |

Reference: ChEMBL document CHEMBL3991601, “The target landscape of clinical kinase drugs” (Science, 2017)
